Data set [1] concerns human liver carcinoma HepG2 cell line. In words: MTT cytotoxicity assay on liver cancer cells. The format is cell-based. The settings on record: 24 h treatment. The procedure:
Toward this, the HepG-2 cells were cultured and treated with tested compounds at different concentrations for 24 h and subsequently 3-(4,5-dimethylthiazol-2-yl)-2,5-diphenyltetrazolium bromide (MTT) dye was added. The colorimetric measurement was assessed using an ELISA plate reader at a wavelength of 570 nm.
Following this initial incubation period, the cells were exposed to varying concentrations of the synthesized compounds. The concentrations may have ranged from a lower to higher dose, depending on the experimental design. The molecules were dissolved in an appropriate solvent, DMSO, to obtain the desired concentrations. Control wells with no drug treatment were also included. […] The duration of the incubation may have varied depending on the specific experimental requirements. At the end of the 24-h treatment, (3-(4,5-dimethylthiazol-2-yl)-2,5-diphenyltetrazolium bromide) MTT dye was added to each well. MTT is a yellow tetrazolium salt that is utilized by metabolically active cells and converted into purple formazan crystals by mitochondrial enzymes in viable cells. […] DMSO is a common solvent used to dissolve the formazan crystals and extract the intracellular purple product. The plate was then subjected to colorimetric measurement using an ELISA plate reader at a wavelength of 570 nm. The intensity of the purple color is proportional to the number of viable cells and reflects the growth condition of the cells in each well. The results were analyzed by calculating the percentage of cell viability or cell growth inhibition compared to the control wells. […] The experiments were performed with at least three replicates for each concentration, and the entire experiment was repeated at least three times to ensure the reliability of the results.

The subject of data set [2] is HepG-2 cells. More on the design: method as in Fayed et al., 2019. The settings on record: ref Fayed et al., 2019; read-out: IC50, cytotoxic activity against HepG-2 cells; cited from earlier work.
For a further data set, the target named is CYP2D6 (Homo sapiens, UniProt P10635).
The next data set relates to HL-7702 normal cell line. The data set is described as follows: MTT cytotoxicity assay on normal liver cells. The format is cell-based. The settings on record: Homo sapiens, L02, 24 h treatment. How it is done:
Following this initial incubation period, the cells were exposed to varying concentrations of the synthesized compounds. The concentrations may have ranged from a lower to higher dose, depending on the experimental design. The molecules were dissolved in an appropriate solvent, DMSO, to obtain the desired concentrations. Control wells with no drug treatment were also included. […] The duration of the incubation may have varied depending on the specific experimental requirements. At the end of the 24-h treatment, (3-(4,5-dimethylthiazol-2-yl)-2,5-diphenyltetrazolium bromide) MTT dye was added to each well. MTT is a yellow tetrazolium salt that is utilized by metabolically active cells and converted into purple formazan crystals by mitochondrial enzymes in viable cells. […] DMSO is a common solvent used to dissolve the formazan crystals and extract the intracellular purple product. The plate was then subjected to colorimetric measurement using an ELISA plate reader at a wavelength of 570 nm. The intensity of the purple color is proportional to the number of viable cells and reflects the growth condition of the cells in each well. The results were analyzed by calculating the percentage of cell viability or cell growth inhibition compared to the control wells. […]
On the technique in general: Tetrazolium assays rely on reduction of a dye to a coloured formazan, in cell work by metabolically active cells.

The test system of data set [3] is HepG-2 cells. In words: Cell cycle analysis by DNA flow cytometry (PI staining). The format is cell-based, human. The settings on record: HepG-2, compound at IC50 (0.75 µM), 24 h. The procedure: Based on this promising activity, compound 7 was selected for further evaluation to assess its effect on the cell cycle profile in HepG-2 cells. To evaluate the cell cycle, a biparametric cytofluorimetric analysis was conducted on HepG-2 cells treated with compound 7 at its IC50 concentration for a duration of 24 h. Propidium iodide (PI) was used as the staining agent for this analysis. (Figure 5). […] Similarly, the percentage of cells in the G2/M phase decreased from 11.46% in the control group to 6.4% after treatment with compound 7. In contrast, there was a notable increase in the percentage of cells in the S phase after treatment with Compound 7. […] These findings indicate that the treatment of HepG-2 cells with compound 7 leads to cell cycle arrest specifically in the S phase. This is evident from the decrease in the proportion of cells in the G1 and G2/M phases, accompanied by an increase in the percentage of cells residing in the S phase. Cell cycle arrest is a widely recognized mechanism utilized by anticancer agents to impede the excessive proliferation of cancer cells. By inducing cell cycle arrest, these agents disrupt the normal progression of the cell cycle, preventing cancer cells from dividing and multiplying uncontrollably. This therapeutic strategy helps to halt tumor growth and promotes the effectiveness of cancer treatments. The observed effects of compound 7 on the cell cycle profile of HepG-2 cells are indicative of its potential as an antitumor agent. […] Furthermore, the increase in the percentage of cells in the S phase upon treatment with Compound 7 may indicate DNA damage and activation of DNA repair mechanisms, which can contribute to the observed S phase arrest.
HepG-2 cells were seeded in […] at a density of 3.0 × 10^5 cells per well and incubated at 37°C for 12 h to allow cell attachment and growth. After the initial incubation, the cells were treated with compound 7 at its IC50 concentration dose value for 24 h. […] Flow cytometry analysis measures the fluorescence emitted by the cells stained with PI, which correlates with the DNA content. […]
(A flow cytometer gives signals particle by particle.)

In data set [4] the test system is HepG-2 cells. In words: Annexin V-FITC/PI apoptosis assay. The format is cell-based, human. How it is done: The Annexin V-FITC/PI assay is a well-established flow cytometric method to evaluate the apoptotic potential of bioactive compounds. The assay allows differentiation between apoptotic cells and live cells by using fluorescent dyes that bind to phosphatidylserine (PS) and DNA, respectively ([Galluzzi et al., 2018]; [Pfeffer and Singh, 2018]; [Tong et al., 2022]). In the present study, the assay was performed to explore the apoptotic effect of compound 7 (at its IC50 dose value) on HepG-2 cells. […] The Annexin V-FITC/PI assay is a well-established method to evaluate the apoptotic potential of chemical compounds. Inducing apoptosis is an appealing therapeutic approach for cancer treatment as it is a vital cellular process essential for preserving tissue balance and removing impaired or unnecessary cells. Disruption in the regulation of apoptosis can contribute to various diseases, such as cancer, highlighting its significance. […] The early stage of apoptosis is characterized by the translocation of PS from the inner to the outer leaflet of the plasma membrane, which can be detected by Annexin V-FITC staining. […] Further, the late stage of apoptosis is characterized by DNA fragmentation, which can be detected by PI staining. […] According to these findings, there is a notable connection between the ability of compound 7 to induce programmed cell death in HepG-2 cells and its antiproliferative effects.
The experimental method involved seeding HepG-2 cells at a density of 1.5 × 10^5 cells per well in a 6-well plate and incubating the cells for 12 h to allow for cell attachment and growth. Following this, the cells were treated with compound 7 at its IC50 concentration for 24 h to induce apoptosis. Apoptosis, a programmed cell death process, was detected by staining the cells with Annexin-V conjugated to fluorescein isothiocyanate (FITC) and Propidium Iodide (PI), and the stained cells were analyzed using a FACSCalibur cytometer and Cellquest software (BD Bioscience). Annexin-V is a protein that binds specifically to phosphatidylserine, a phospholipid that is externalized on the outer surface of the plasma membrane during early stages of apoptosis. FITC, a green-fluorescent dye conjugated to Annexin-V, is used to label the apoptotic cells. PI, a red-fluorescent DNA intercalating agent, is used to distinguish between apoptotic and necrotic cells based on their DNA content. The FACSCalibur cytometer is a flow cytometer used to analyze and quantify fluorescently labeled cells. The experimental method likely allowed for the quantification of apoptotic cells by analyzing the Annexin-V-FITC and PI staining patterns using flow cytometry. The results obtained from this method provided information on the induction of apoptosis by compound 7 in HepG-2 cells, further elucidating the mechanism of action of this compound as a potential anticancer agent. To ensure the reliability of the results, the experimental conditions were repeated at least three times, and the cells were exposed to therapeutically effective concentration of the compound, they were treated with compound 7 at a dose corresponding to its IC50 concentration. This ensured that the cells were subjected to an optimal concentration of the compound during the experiment. This experimental method yielded crucial information on the mechanism by which it exerts its anticancer effects.

For a further data set, the target named is T1, VEGFR-2 (Homo sapiens, UniProt P35968).
T1 construct: ability to target the VEGFR-2 receptor inHep-G2 cells; endogenous in cells; host or cells: Hep-G2
In words: VEGFR-2 ELISA assay. The format is cell-based. The procedure:
A 96-well plate was used for the assay, and each well was filled with a specific volume of the tested molecules and standard concentrations. The wells were coated with an immobilized antibody that specifically binds to VEGFR-2. After incubation, the wells were washed to remove unbound molecules, and biotinylated anti-human VEGFR-2 antibody was added to the wells. This biotinylated antibody specifically binds to VEGFR-2 that is captured by the immobilized antibody. Following another round of washing, a solution of conjugated streptavidin, which binds to the biotinylated antibody, was added to the wells. […] During this incubation, the bound conjugated streptavidin transformed the substrate into a colorful product. After terminating the reaction with an inhibitor solution, the optical density of the produced color was instantly determined at 450 nm with a spectrophotometer.
In general terms: An ELISA detects its analyte on a solid surface through an enzyme-linked reagent.

One may read the IC50 as the midpoint of a concentration-inhibition curve. Usually melting point stands for the temperature of the solid-liquid transition.

Where two headings read alike, the source gives them in different places.

CYP2D6, sequence (P10635 whole entry): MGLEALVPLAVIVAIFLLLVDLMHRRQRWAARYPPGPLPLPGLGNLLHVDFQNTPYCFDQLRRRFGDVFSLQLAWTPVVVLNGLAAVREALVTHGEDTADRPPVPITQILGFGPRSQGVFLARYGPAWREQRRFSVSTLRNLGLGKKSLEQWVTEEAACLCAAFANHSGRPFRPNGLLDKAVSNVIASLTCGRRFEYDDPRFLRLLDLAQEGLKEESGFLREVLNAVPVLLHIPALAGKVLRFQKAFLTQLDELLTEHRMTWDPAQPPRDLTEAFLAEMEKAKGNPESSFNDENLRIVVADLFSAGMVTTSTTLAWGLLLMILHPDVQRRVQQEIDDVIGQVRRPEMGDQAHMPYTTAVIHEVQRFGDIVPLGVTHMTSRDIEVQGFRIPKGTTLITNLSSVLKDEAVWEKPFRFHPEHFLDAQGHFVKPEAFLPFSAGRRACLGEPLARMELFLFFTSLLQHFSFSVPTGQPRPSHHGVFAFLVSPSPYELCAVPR
T1 sequence (P35968 20-1356): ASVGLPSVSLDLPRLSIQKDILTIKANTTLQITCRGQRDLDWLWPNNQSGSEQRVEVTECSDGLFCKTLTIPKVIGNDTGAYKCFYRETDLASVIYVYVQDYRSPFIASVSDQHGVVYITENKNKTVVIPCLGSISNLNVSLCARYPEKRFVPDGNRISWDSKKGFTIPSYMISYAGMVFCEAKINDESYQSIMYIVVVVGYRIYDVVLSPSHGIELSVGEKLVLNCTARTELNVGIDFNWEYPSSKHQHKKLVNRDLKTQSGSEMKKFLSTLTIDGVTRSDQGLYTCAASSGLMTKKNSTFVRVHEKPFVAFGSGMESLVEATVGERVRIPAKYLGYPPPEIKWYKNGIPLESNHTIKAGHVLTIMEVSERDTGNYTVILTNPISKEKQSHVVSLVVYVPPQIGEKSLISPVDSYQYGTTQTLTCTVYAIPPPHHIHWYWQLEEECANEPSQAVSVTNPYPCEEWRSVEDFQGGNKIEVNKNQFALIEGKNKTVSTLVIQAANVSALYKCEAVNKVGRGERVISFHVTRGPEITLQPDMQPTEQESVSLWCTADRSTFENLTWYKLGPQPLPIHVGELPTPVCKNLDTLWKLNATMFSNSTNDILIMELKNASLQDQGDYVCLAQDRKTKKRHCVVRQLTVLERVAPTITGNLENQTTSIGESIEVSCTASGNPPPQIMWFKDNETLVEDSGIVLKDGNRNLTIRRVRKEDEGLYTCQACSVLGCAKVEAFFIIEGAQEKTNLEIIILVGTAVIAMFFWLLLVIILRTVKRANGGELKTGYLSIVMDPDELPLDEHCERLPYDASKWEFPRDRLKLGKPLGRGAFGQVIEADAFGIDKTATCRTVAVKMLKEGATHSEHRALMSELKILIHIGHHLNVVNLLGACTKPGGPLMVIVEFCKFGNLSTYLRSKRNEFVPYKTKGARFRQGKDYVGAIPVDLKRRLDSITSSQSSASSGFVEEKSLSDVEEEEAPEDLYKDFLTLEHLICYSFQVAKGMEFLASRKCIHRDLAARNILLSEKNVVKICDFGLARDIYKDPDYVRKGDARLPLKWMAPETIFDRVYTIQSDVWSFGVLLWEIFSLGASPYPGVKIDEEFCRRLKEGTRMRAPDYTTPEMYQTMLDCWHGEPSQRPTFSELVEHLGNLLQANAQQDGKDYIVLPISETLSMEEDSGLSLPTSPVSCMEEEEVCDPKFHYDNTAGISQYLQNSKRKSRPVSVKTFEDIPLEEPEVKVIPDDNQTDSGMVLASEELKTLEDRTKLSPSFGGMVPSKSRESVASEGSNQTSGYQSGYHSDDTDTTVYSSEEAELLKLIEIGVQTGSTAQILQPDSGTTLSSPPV
Experimental for CYP2D6: Human cells, obtained from the American Type Culture Collection (ATCC), were cultivated in RPMI medium (Invitrogen/Life Technologies). The medium was supplemented with 1% penicillin-streptomycin, 10 μg/ml of insulin (Sigma), and to support cell growth and 10% Fetal Bovine Serum (FBS) (Hyclone) viability. […] Cells were seeded into a 96-well plate at a density of 1.2–1.8 × 10,000 cells/well in a volume of 100 μL of complete growth medium. […] Each concentration was tested in triplicate. A control well with only complete growth medium was included as a negative control. […] The culture media was quickly withdrawn, and the cultured cells were rinsed with PBS. […] After the incubation, the fluorescence intensity of the converted product was measured using a FLx800™ Fluorescence Microplate Reader at the excitation wavelength of 390 nm and the emission wavelength of 488 nm. […] The data were analyzed for statistical significance and presented as mean ± standard deviation (SD) from triplicate measurements.

As to `COc1ccc(Br)c2cc(C(=O)Nc3cccc(OC(C)=O)c3)c(=O)oc12` [Compound 6, N-(3-acetoxy)phenyl 5-bromo-8-methoxycoumarin-3-carboxamide], the melting point amounted to 205 °C. Half-maximal inhibition in data set [1] (IC50) was put at 13.4 ± 0.56 µM.

Take `COc1ccc(-c2cc(-c3cc4ccccc4oc3=O)nc(NC(C)=O)c2C#N)cc1` [Compound 11]: the concentration for half-maximal inhibition (IC50) in the data set with HepG-2 cells [2] is 4.5 µM.

`COc1ccc(Br)c2cc(C(=O)Nc3cccc(O)c3)c(=O)oc12` [Compound 4, N-(3-hydroxy)phenyl 5-bromo-8-methoxycoumarin-3-carboxamide] showed a melting point of 289 °C. This molecule also yielded a concentration for half-maximal inhibition (IC50) in data set [1] of 38.3 ± 1.62 µM.

Turning to `COc1ccc(Br)c2cc(C(=O)Nc3cccc(O)c3)c(=O)[nH]c12` [Compound 8, N-(3-hydroxy)phenyl 5-bromo-8-methoxy-azacoumarin-3-carboxamide], the melting point is 255 °C. In data set [1], the IC50 stood at 4.79 ± 0.2 µM.

Regarding `CN[C@@H]1C[C@H]2O[C@@](C)([C@@H]1OC)n1c3ccccc3c3c4c(c5c6ccccc6n2c5c31)C(=O)NC4` [STU, staurosporine, reference compound], the IC50 against CYP2D6 (human) stood at 70.3 µg/mL.

As for `COc1cccc2cc(C(=O)Nc3cccc(O)c3)c(=O)oc12` [Compound 3, N-(3-hydroxy)-phenyl 8-methoxycoumarin-3-carboxamide], the melting point is 256 °C. In addition, the IC50 in data set [1] amounted to 3.81 ± 0.16 µM.

For the molecule `COc1cccc2cc(C(=O)Nc3cccc(O)c3)c(=O)[nH]c12` [Compound 7, N-(3-hydroxy)phenyl 8-methoxy-azacoumarin-3-carboxamide], the 50% inhibitory concentration (IC50) in data set [1] is 0.75 ± 0.03 µM. Besides, in the data set with HL-7702 normal cell line, the IC50 was determined as 13.7 ± 1.8 µM. The “percentage of cells in the G2/M phase” value in the data set with HepG-2 cells [3] (untreated control 11.46%) was determined as 6.4%. Also, the “percentage of cells in the S phase” value with HepG-2 cells [3] (untreated control 42.19%) was 54.52%. Further, the “percentage of cells in the G1 phase” value in the data set with HepG-2 cells [3] (untreated control 46.35%) is recorded as 39.08%. In the data set with HepG-2 cells [4] (HepG-2, compound at IC50), the “fold increase of early apoptotic cells vs control” value came to 45 fold, the “fold increase of late apoptotic cells vs control” value turned out to be 73 fold, the “fold increase of necrosis vs control” value is reported as 2.5 fold and the “fold increase of total apoptotic cells vs control” value was 23 fold. Moreover, in the data set on HepG-2 cells [4] (HepG-2, compound at IC50 (0.75 µM), 24 h, control 0.21%), the “percentage of apoptotic cells, late stage” value stood at 15.34%. In addition, the “percentage of apoptotic cells, early stage” value with HepG-2 cells [4] (HepG-2, compound at IC50 (0.75 µM), 24 h, control 0.55%) came out at 24.72%. The VEGFR2 protein level on VEGFR-2 (Hep-G2 cells, untreated 3,007 pg/mL) is listed as 1,086 pg/mL. The IC50 at VEGFR-2 (summary graph, read-out: Angiogensis inhibtion IC50 (Figure 10) (converted)) is 110 µM. Moreover, on CYP2D6, the IC50 was 110 µM and the “fold more potent than standard staurosporin toward CYP2D6” value is 2.1 fold.

(Values after publication PMC10436493, “Unveiling the antitumor potential of novel N-(substituted-phenyl)-8-methoxycoumarin-3-carboxamides as dual inhibitors of VEGFR2 kinase and cytochrome P450 for targeted treatment of hepatocellular carcinoma” (Frontiers in Chemistry, 2023).)
